Assay results taken from patent publication US20240016735A1, “IONIC LIQUIDS FOR DRUG DELIVERY” (PRESIDENT AND FELLOWS OF HARVARD COLLEGE, priority 2019, published 2024).

Experiments:
[1] = anion of ionic liquid; cited from earlier work
[2] = tested on: intestinal villi of Wistar rats; assay: In vivo local delivery of antibody-CGLY via intrajejunal administration; settings: rat, 1 mg mL^−1 FITC-IgG in 50% v/v CGLY2:1, 2 h
Description: Rats receiving equivalent saline injection without FITC-IgG were used as the negative control group. After 2 h, the rats were sacrificed and jejunal tissues were harvested and preserved using Swiss-rolling technique^[14]. […] The tissues were then frozen at −80° C. in the presence of optimum cutting temperature (OCT) compound and tissue sections were cut into 25 m thickness. was visualized using a slide scanner microscope (ZEISS Axio Scan.Z1) and the images processed using Zen™ (Blue edition) software.

[3] = tested on: siRNA; settings: IL 50% (v/v), 30 min incubation, dialysis 72 h
Description: (§1) Skin-penetrating IL-RNA complexes. The cholinium-based IL library was synthesized as described previously (26). Briefly, the cation, choline bicarbonate, and various anions were mixed at a 1:2 ratio to prepare ILs following salt metathesis reaction. […] The resulting IL solution was dried using a rotary evaporator at 20 mbar at 60° C. for 2 hours. The residual water was removed in a vacuum oven at 60° C. for 48 hours. The ILs that were viscous at RT were characterized via NMR with dimethyl sulfoxide (DMSO)-d6 on an Agilent DD2 600-MHz spectrometer (Supplementary Materials and Methods). ILs were mixed with RNA (100 μM) at a volumetric ratio of 1:1 and incubated for 30 min at RT. The RNA-IL solutions (1 ml) were dialyzed against 10 mM sodium phosphate buffer for 72 hours using Dialysis Cassettes (10,000 molecular weight cutoff, Invitrogen). The concentration of RNA was confirmed and normalized using a NanoDrop instrument (Thermo Fisher Scientific). The stability of the RNA in the IL solution was determined using CD and gel electrophoresis.
RNA concentrations were normalized in 10 mM sodium phosphate buffer and incubated for 30 mins at RT to ensure reduction and equilibrium, and then loaded into quartz cuvettes. Near-UV spectra were recorded from 200 nm to 310 nm at 20° C. by averaging 5 scans at 0.1 nm intervals for each sample. Spectrum Manager 2 was used to subtract the baseline and the spectra were plotted as molar ellipticity, [0] (deg.cm2.dmol-1).

[4] = cation:anion 1:2
Description: IL selection. A library of ILs was designed and synthesized to assess siRNA delivery into skin. Cholinium was used as the cation in all ILs due to its biocompatibility. Several different anions were used to synthesize ILs (FIGS. 24A-24E). […] Other anions were chosen for several reasons. First, anions containing shorter linear carbon chains were chosen in contrast to geranic acid to assess the impact of the chain length on siRNA stability and delivery. Anions with aromatic groups were chosen since they might interact with the stacked RNA base pairs via electrostatic, hydrophobic, and polar interactions. All ILs were prepared at a stoichiometric ratio of 1:2 (cation:anion) and were assessed for stability and siRNA delivery. […] In addition, since both interleukin and ILs have been denoted as “IL,” for the purpose of clarity, all interleukins are referred by a numerical value throughout the manuscript.
as §1

[5] = tested on: porcine skin; assay: Porcine skin penetration of Cy5-labeled siRNA in Franz diffusion cells (tape-stripping); format: in vitro ADME; settings: 24 h, IL 50% v/v or naked siRNA
Description: Skin penetration studies. Skin penetration studies were performed using porcine skin in FDCs, as described previously (40). A total volume of 20 μl of Cy5-labeled RNA (50 μM) in IL solutions was applied to the porcine skin surface and was incubated at 40° C. for 24 hours under occlusive conditions with moderate stirring. The skin permeability of RNA was visualized and quantified using confocal microscopy and tape-stripping techniques, respectively.
Porcine skin penetration ex-vivo studies Porcine skin studies were carried out in Franz diffusion cells (FDC) with penetration area of 1.77 cm^2. The porcine skin was obtained from Lampire Biological Laboratories, Pipersville, PA, USA. Briefly skins were thawed, hairs were trimmed, and washed with phosphate buffer saline (PBS, pH 7.4). A 36 mm punch was used to cut out a disc of the skin and a scalpel was used to get rid of the connective tissues and subcutaneous fat layers. […] 1 mL PBS was added to the donor chamber and the conductivity was measured using a waveform generator (Agilent 33120) and voltmeter (Fluke 87 True RMS Multimeter) at a frequency of 100 Hz and amplitude, 100 mV. Only skin samples with a measured transepidermal conductivity of less than […] were used for further studies. […] Following incubation, the skin was removed from the cell, washed gently with PBS and were further analyzed using tape-stripping and confocal microscopy. […]

Compound: CC(C)=CC(=O)O [3,3-dimethylacrylic acid]
- pKa [1]: 5.02

Compound: O=S(=O)(O)c1ccc(O)cc1 [4-hydroxybenzenesulfonic acid]
- pKa [1]: 9.11

Compound: O=C(O)c1cccc(-c2ccccc2)c1 [Bipheny1-3-carboxylic acid]
- pKa [1]: 4.14

Compound: C[N+](C)(C)CCO.O=C([O-])CO [CGLY2:1, choline-glycolate]
- FITC-IgG fluorescence signal on intestinal villi vs no-CGLY2:1 control [2]: over 4.5 fold

Compound: O=P(O)(O)Oc1ccccc1 [Phenylphosphoric acid]
- pKa [1]: 9.99

Compound: choline and biphenyl-3-carboxylic acid [CABA]
- siRNA secondary structure (CD, band at 210 nm) [3]: notable alteration in the a helix backbone
- physical state at room temperature [4]: solidified or formed a gel

Compound: choline and dimethylacrylic acid [CADA]
- siRNA secondary structure (CD, band at 210 nm) [3]: notable alteration in the a helix backbone
- physical state at room temperature [4]: viscous liquid

Compound: choline and geranic acid [CAGE, reference compound]
- siRNA secondary structure (CD, band at 210 nm) [3]: notable alteration in the a helix backbone
- siRNA delivered into the epidermis [5]: About 0.20 nmol/cm2
- physical state at room temperature [4]: viscous liquid

Compound: choline and phenylphosphoric acid [CAPP]
- physical state at room temperature [4]: solidified or formed a gel

Compound: choline and phenylpropanoic acid [CAPA]
- siRNA secondary structure (CD, band at 210 nm) [3]: retained the secondary structure of siRNA
- physical state at room temperature [4]: viscous liquid
